Data published in patent US20230067910A1, “NOVEL COMPOUNDS FOR THE DIAGNOSIS, TREATMENT AND PREVENTION OF DISEASES ASSOCIATED WITH THE AGGREGATION OF ALPHA-SYNUCLEIN” (MODAG GMBH, priority 2019, published 2023).

What was measured:
[1] = biological target: T1, aggregated alpha-synuclein (Homo sapiens, UniProt P37840); experiment: Autoradiography using human brain tissue (dementia with Lewy bodies); assay type: binding
T1 construct: made in house; host or cells: E. coli
Description: Autoradiography was performed on histological slices of frozen brain tissue using tritiated compound 1 and brain tissue derived from the cingulate gyrus of a patient with dementia with Lewy bodies.

[2] = biological target: T1, aggregated alpha-synuclein; experiment: Modified saturation binding assay, protocol 2b, alpha-synuclein fibrils; conditions: saturation assay protocol 2b, sonicated fibrils 15 nM/well
Description: Alpha-synuclein and tau46 were purified from E. coli according to established protocols (Nuscher B, et al., J. Biol. Chem., 2004; 279(21):21966-75), Aβ1-42 was obtained from rPeptide, Watkinsville, Ga., USA. Fibrils were prepared by aggregation of recombinant protein via constant agitation. In detail, 70 μM of alpha-synuclein mixed with 100 mM NaCl in 50 mM Tris, pH 7.0+0.02% NaN3 were incubated at 1,400 rpm, 37° C. for 96 h. 10 μM of tau46 were incubated with 0.03 mg/ml heparin in 50 mM Tris, pH=7.0 at 1,000 rpm, 37° C. for 72 h. […]
For saturation binding assays, a fixed concentration of sonicated human recombinant αSYN (15 nM/well) or tau46 (250 nM/well) or Aβ1-42 (1 μM/well) fibrils diluted in phosphate buffered saline (PBS) were incubated in low binding plates (96 well micro test plate, Ratiolab GmbH, Dreieich, Germany) with [H]-compound 1 or [PH]-compound 2 at increasing concentrations (from 0.05 nM to 12 nM/24 nM) in 30 mM Tris HCl, 10% ethanol, 0.05% Tween20, pH 7.4 (hereafter referred to as incubation buffer) in a total volume of 200 μL/well. Non-specific binding of the radiotracer was determined by coincubation with 400 nM non-labeled compound 1 or compound 2. The optimal fibril concentrations were determined using a concentration determination assay. […]

[3] = biological target: T2, tau46 (fibrils) (Homo sapiens, UniProt P10636); experiment: Competition binding assay, protocol 3a, reference ligand [3H]-compound 1, tau46 fibrils; conditions: Experiment B, reference ligand [3H]-compound 1 (1 nM)
T2 construct: made in house; host or cells: E. coli
Description: Alpha-synuclein and tau46 were purified from E. coli according to established protocols (Nuscher B, et al., J. Biol. Chem., 2004; 279(21):21966-75), Aβ1-42 was obtained from rPeptide, Watkinsville, Ga., USA. Fibrils were prepared by aggregation of recombinant protein via constant agitation. In detail, 70 μM of alpha-synuclein mixed with 100 mM NaCl in 50 mM Tris, pH 7.0+0.02% NaN3 were incubated at 1,400 rpm, 37° C. for 96 h. 10 μM of tau46 were incubated with 0.03 mg/ml heparin in 50 mM Tris, pH=7.0 at 1,000 rpm, 37° C. for 72 h. Aβ1-42 was solved in 20 mM NaPi, pH=8.0+0.2 mM EDTA+0.02% NaN3 (Deeg A A, et al., Biochim. Biophys. Acta, 2015; 1850(9): 1884-90; Goedert M, et al. Nature, 1996; 383(6600): 550-3).
A fixed concentration of sonicated human recombinant αSYN (200 nM/well) or tau46 (208 nM/well) fibrils diluted in phosphate buffered saline (PBS) were incubated in low binding plates (96 well micro test plate, Ratiolab GmbH, Dreieich, Germany) together with 1 nM [^3H]-compound 1 and 1:4 serial dilutions of the cold compound of interest starting from 1 μM diluted in 50 mM Tris-base, 10% EtOH, 0.05% Tween20, pH 7.4. For the calculation of Ki values the KD value of compound 1 toward sonicated human recombinant αSYN fibrils was set to 3 nM.
Assay plates were incubated under agitation at 37° C. for 2 h covered by plastic foil (Resealable tape, PerkinElmer, Waltham, Mass., USA). Prior to harvesting, a filter (Printed filtermat B, PerkinElmer, Waltham, Mass., USA) was incubated with 5 mg/mL polyethylenimine (PEI, Poly(ethyleneimine) solution, Sigma Aldrich Chemie GmbH, Taufkirchen, Germany) at 4° C. for 30 min. After incubation, bound and free ligands were separated by vacuum filtration using a harvester (Filtermate harvester, PerkinElmer, Waltham, Mass., USA). The filter was washed three times with buffer cooled to 4° C. and subsequently dried in the microwave for 2 min at medium power. The filter was sealed in a plastic bag (Sample bag for MicroBeta®, PerkinElmer, Waltham, Mass., USA) together with added scintillator (BETAPLATE SCINT, PerkinElmer, Waltham, Mass., USA). Accumulation of tritium was counted in a liquid scintillation counter (Wallac MicroBeta® TriLux, 1450 LSC & Luminescence Counter, PerkinElmer, Waltham, Mass., USA) immediately. Radioactivity was plotted against the increasing tritium-labeled compound or cold compound concentrations. Data points were fitted using nonlinear regression analysis in GraphPad Prism (GraphPad Software, Inc., Version 7.03, La Jolla, Calif., USA).
The fibril competition assay provides Ki values. Ki is a quantitative measure that represents the concentration of the non-radioactive tested compound (competitor ligand) required to replace 50% of a reference compound, in this case [H]-compound 1 (1 nM) or [H]-compound 2 (1 nM), which is bound to the target structures (1 nM), in our case recombinant alpha-synuclein and tau46 fibrils. This assay is suitable for a screening of non-radioactive ligands.

T2 sequence (P10636 1-412 isoform P10636-7): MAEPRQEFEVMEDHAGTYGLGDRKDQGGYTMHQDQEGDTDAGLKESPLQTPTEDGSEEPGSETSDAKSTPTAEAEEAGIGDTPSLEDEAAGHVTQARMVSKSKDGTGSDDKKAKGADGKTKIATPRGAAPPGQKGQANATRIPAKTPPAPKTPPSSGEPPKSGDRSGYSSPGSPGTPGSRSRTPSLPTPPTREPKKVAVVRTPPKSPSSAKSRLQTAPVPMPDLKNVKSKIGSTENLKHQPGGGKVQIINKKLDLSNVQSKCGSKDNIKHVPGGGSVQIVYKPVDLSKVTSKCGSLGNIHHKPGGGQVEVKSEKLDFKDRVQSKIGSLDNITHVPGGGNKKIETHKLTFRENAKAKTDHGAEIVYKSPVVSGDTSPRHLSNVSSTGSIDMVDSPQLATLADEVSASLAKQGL

Row | Autoradiography binding pattern ([1]; [3H]-compound 1 at 3 nM, cingulate gyrus, patient with dementia with Lewy bodies) | Unspecific binding to brain tissue ([1]; specific binding blocked by excess of non-tritiated compound 1) | Kd [2] | Ki [3] | SMILES
1 | preferential binding to the gray matter | no to very low unspecific binding | 0.6 nM | – | CN(C)c1ccc(-c2cc(-c3ccnc(Br)c3)[nH]n2)cc1 [Compound 1, 4-[3-(4-dimethylamino-phenyl)-1H-pyrazol-5-yl]-2-bromopyridine]
2 | – | – | 0.2 nM | 9 nM | CNc1ccc(-c2cc(-c3ccnc(Br)c3)[nH]n2)cc1 [Compound 2, 4-[5-(2-bromopyridin-4-yl)-1H-pyrazol-3-yl]-N-methylaniline]
